Assay results taken from patent US12319676B2, “Substituted amide compounds useful as farnesoid X receptor modulators” (BRISTOL-MYERS SQUIBB COMPANY, priority 2019, dated 2025).

Biological target: T1, human FXR (Homo sapiens, UniProt Q96RI1)
T1 construct: expressed in transfected cells; host or cells: HEK293 cells stably carrying a 5xGal4 response element-luciferase reporter, transiently transfected with pcDNA3.1-Gal4-FXR
T1 sequence (Q96RI1 262-486 limits assumed): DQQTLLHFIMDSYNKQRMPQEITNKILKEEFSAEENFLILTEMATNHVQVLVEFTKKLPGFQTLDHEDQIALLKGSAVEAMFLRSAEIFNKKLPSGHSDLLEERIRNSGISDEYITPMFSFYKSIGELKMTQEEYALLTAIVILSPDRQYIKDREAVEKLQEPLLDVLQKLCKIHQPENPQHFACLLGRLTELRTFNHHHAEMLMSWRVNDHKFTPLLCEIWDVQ
Assay: transient human FXR/Gal4-luciferase reporter assay
Format: cell-based
Conditions: Gal4-hFXR fusion construct, luciferase reporter in HEK293 cells; overnight incubation; response as percentage of 8 μM GW-4064 control
Method: The exemplified compounds of the present invention were tested in the transient human FXR/Gal4-luciferase reporter assay, and assay results were reported in Table 1 and Examples 1 to 3 together with other analytical data. A Gal4-hFXR fusion construct reporter system was used as the primary assay to characterize compound activity. A construct including 5 copies of the Gal4 promoter response element upstream of a firefly luciferase reporter cDNA was stably expressed in HEK293 cells. This reporter cell line was maintained in Dulbecco's Modified Eagle's medium (DMEM; Gibco) supplemented with 1% penicillin-streptomycin (P/S) solution, 500 μg/mL Zeocin and 10% charcoal/dextran-treated fetal bovine serum (cs-FBS) at 37° C. in a humidified 5% CO2 atmosphere. Another plasmid was constructed in which the human cytomegalovirus promoter in the pcDNA3.1 vector directs the expression of the cDNA encoding a fusion protein comprised of the DNA binding domain from the Gal4 transcription factor fused to the ligand binding domain from human FXR. The day prior to transfection, the reporter cells in culture are detached from the plate with trypsin and plated into a T75 flask at a sufficient density to achieve approximately 90% confluence the next morning. The transfection reagents are prepared by separately diluting 25 μg of the pcDNA3.1-Gal4-FXR plasmid into 1.87 mL of Opti-MEM (Thermo-Fisher), and 40 μL of Lipofectamine 2000 (Thermo-Fisher) into 1.87 mL of Opti-MEM, and then adding the diluted DNA solution into the diluted Lipofectamine 2000 solution and incubating at room temperature for 15-20 minutes. The mixture is further diluted with 10 mL of a solution comprised of DMEM, 10% cs-FBS, and 1% P/S immediately prior to transferring to the cells. The maintenance culture media is aspirated from the cells and the final transfection mixture is added before the cells are incubated overnight at 37° C. in a humidified 5% CO2 atmosphere. This protocol can be scaled up, and the transiently transfected cells can be cryopreserved in an assay-ready format. For compound testing, 100 nL of the compounds (serial dilutions in DMSO) are dispensed with an Echo acoustic dispenser (Labcyte) into the wells of a Corning/Costar clear bottom 384-well white plate. The transfected cells are harvested, counted, and diluted such that 10-25,000 cells in 25 μL are plated into each well of the 384-well compound assay plate. The compound-treated cells are incubated overnight at 37° C. in a humidified 5% CO2 atmosphere. The next morning 25 μL of Steady-Glo (Promega) are added to each well of the plate, the mixture is incubated for 15 min. with shaking, and luminescence is measured on an Envision (Perkin Elmer) plate reader. Background counts from cells treated with DMSO alone are subtracted from all raw counts, and the corrected values are converted to a percentage of the control response attained with 8 μM GW-4064.

| EC50 [nM] | SMILES |
| --- | --- |
| 261 | CC(F)(F)c1nc(C23CCC(CN(C(=O)C4CC4(F)F)c4cccc(Br)c4)(CC2)CC3)no1 (racemic) [Example 31, N-(3-bromophenyl)-N-((4-(5-(1,1-difluoroethyl)-1,2,4-oxadiazol-3-yl)bicyclo[2.2.2]octan-1-yl)methyl)-2,2-difluorocyclopropane-1-carboxamide] |
| 11 | CC(F)(F)c1nc(C23CCC(CN(C(=O)C45CC(F)(C4)C5)c4cccc(Cl)c4)(CC2)CC3)no1 [Example 1, N-(3-chlorophenyl)-N-((4-(5-(1,1-difluoroethyl)-1,2,4-oxadiazol-3-yl)bicyclo[2.2.2]octan-1-yl)methyl)-3-fluorobicyclo[1.1.1]pentane-1-carboxamide] |
| 64 | CC(F)(F)c1nc(C23CCC(CN(c4cccc(Cl)c4)C(=O)[C@H]4C[C@](O)(C(F)(F)F)C4)(CC2)CC3)no1 [Example 2, N-(3-chlorophenyl)-N-((4-(5-(1,1-difluoroethyl)-1,2,4-oxadiazol-3-yl)bicyclo[2.2.2]octan-1-yl)methyl)-3-hydroxy-3-(trifluoromethyl)cyclobutane-1-carboxamide] |
| 133 | CC(F)(F)c1nc(C23CCC(CN(C(=O)C4CCC(F)(F)CC4)c4cccc(Cl)c4)(CC2)CC3)no1 [Example 3, N-(3-chlorophenyl)-N-((4-(5-(1,1-difluoroethyl)-1,2,4-oxadiazol-3-yl)bicyclo[2.2.2]octan-1-yl)methyl)-4,4-difluorocyclohexane-1-carboxamide] |
| 12 | CC(F)(F)c1nc(C23CCC(CN(C(=O)C45CC(F)(C4)C5)c4cccc(C#N)c4)(CC2)CC3)no1 [Example 4, N-(3-cyanophenyl)-N-((4-(5-(1,1-difluoroethyl)-1,2,4-oxadiazol-3-yl)bicyclo[2.2.2]octan-1-yl)methyl)-3-fluorobicyclo[1.1.1]pentane-1-carboxamide] |
| 164 | CC(F)(F)c1nc(C23CCC(CN(C(=O)C4CC(O)(C(F)(F)F)C4)c4cccc(C#N)c4)(CC2)CC3)no1 (centres unmarked) [Example 5, N-(3-cyanophenyl)-N-((4-(5-(1,1-difluoroethyl)-1,2,4-oxadiazol-3-yl)bicyclo[2.2.2]octan-1-yl)methyl)-3-hydroxy-3-(trifluoromethyl)cyclobutane-1-carboxamide] |
| 106 | CC(F)(F)c1nc(C23CCC(CN(C(=O)C4CCC(F)(F)CC4)c4cccc(C#N)c4)(CC2)CC3)no1 [Example 6, N-(3-cyanophenyl)-N-((4-(5-(1,1-difluoroethyl)-1,2,4-oxadiazol-3-yl)bicyclo[2.2.2]octan-1-yl)methyl)-4,4-difluorocyclohexane-1-carboxamide] |
| 30 | CC(F)(F)c1nc(C23CCC(CN(C(=O)C45CC(F)(C4)C5)c4cccc(F)c4)(CC2)CC3)no1 [Example 7, N-((4-(5-(1,1-difluoroethyl)-1,2,4-oxadiazol-3-yl)bicyclo[2.2.2]octan-1-yl)methyl)-3-fluoro-N-(3-fluorophenyl)bicyclo[1.1.1]pentane-1-carboxamide] |
| 462 | CC(F)(F)c1nc(C23CCC(CN(c4cccc(F)c4)C(=O)[C@H]4C[C@](O)(C(F)(F)F)C4)(CC2)CC3)no1 [Example 8, N-((4-(5-(1,1-difluoroethyl)-1,2,4-oxadiazol-3-yl)bicyclo[2.2.2]octan-1-yl)methyl)-N-(3-fluorophenyl)-3-hydroxy-3-(trifluoromethyl)cyclobutane-1-carboxamide] |
| 451 | CC(F)(F)c1nc(C23CCC(CN(C(=O)C4CCC(F)(F)CC4)c4cccc(F)c4)(CC2)CC3)no1 [Example 9, N-((4-(5-(1,1-difluoroethyl)-1,2,4-oxadiazol-3-yl)bicyclo[2.2.2]octan-1-yl)methyl)-4,4-difluoro-N-(3-fluorophenyl)cyclohexane-1-carboxamide] |
| 124 | CC(F)(F)c1nc(C23CCC(CN(C(=O)C45CC(F)(C4)C5)c4ccc(F)c(F)c4)(CC2)CC3)no1 [Example 10, N-((4-(5-(1,1-difluoroethyl)-1,2,4-oxadiazol-3-yl)bicyclo[2.2.2]octan-1-yl)methyl)-N-(3,4-difluorophenyl)-3-fluorobicyclo[1.1.1]pentane-1-carboxamide] |
| 881 | CC(F)(F)c1nc(C23CCC(CN(C(=O)C4CCC(F)(F)CC4)c4ccc(F)c(F)c4)(CC2)CC3)no1 [Example 11, N-((4-(5-(1,1-difluoroethyl)-1,2,4-oxadiazol-3-yl)bicyclo[2.2.2]octan-1-yl)methyl)-N-(3,4-difluorophenyl)-4,4-difluorocyclohexane-1-carboxamide] |
| 73 | CC(F)(F)c1nc(C23CCC(CN(C(=O)C45CC(F)(C4)C5)c4cccc(OC(F)F)c4)(CC2)CC3)no1 [Example 12, N-((4-(5-(1,1-difluoroethyl)-1,2,4-oxadiazol-3-yl)bicyclo[2.2.2]octan-1-yl)methyl)-N-(3-(difluoromethoxy)phenyl)-3-fluorobicyclo[1.1.1]pentane-1-carboxamide] |
| 302 | CC(F)(F)c1nc(C23CCC(CN(c4cccc(OC(F)F)c4)C(=O)[C@H]4C[C@](O)(C(F)(F)F)C4)(CC2)CC3)no1 [Example 13, N-((4-(5-(1,1-difluoroethyl)-1,2,4-oxadiazol-3-yl)bicyclo[2.2.2]octan-1-yl)methyl)-N-(3-(difluoromethoxy)phenyl)-3-hydroxy-3-(trifluoromethyl)cyclobutane-1-carboxamide] |
| 29 | CC(F)(F)c1nc(C23CCC(CN(C(=O)C45CC(F)(C4)C5)c4cccc(C(F)(F)F)c4)(CC2)CC3)no1 [Example 14, N-((4-(5-(1,1-difluoroethyl)-1,2,4-oxadiazol-3-yl)bicyclo[2.2.2]octan-1-yl)methyl)-3-fluoro-N-(3-(trifluoromethyl)phenyl)bicyclo[1.1.1]-pentane-1-carboxamide] |
| 176 | CC(F)(F)c1nc(C23CCC(CN(c4cccc(C(F)(F)F)c4)C(=O)[C@H]4C[C@](O)(C(F)(F)F)C4)(CC2)CC3)no1 [Example 15, N-((4-(5-(1,1-difluoroethyl)-1,2,4-oxadiazol-3-yl)bicyclo[2.2.2]octan-1-yl)methyl)-3-hydroxy-3-(trifluoromethyl)-N-(3-(trifluoromethyl)phenyl)cyclobutane-1-carboxamide] |
| 315 | CC(F)(F)c1nc(C23CCC(CN(C(=O)C4CCC(F)(F)CC4)c4cccc(C(F)(F)F)c4)(CC2)CC3)no1 [Example 16, N-((4-(5-(1,1-difluoroethyl)-1,2,4-oxadiazol-3-yl)bicyclo[2.2.2]octan-1-yl)methyl)-4,4-difluoro-N-(3-(trifluoromethyl)phenyl)cyclohexane-1-carboxamide] |
| 149 | COc1cc(N(CC23CCC(c4noc(C(C)(F)F)n4)(CC2)CC3)C(=O)C23CC(F)(C2)C3)ccn1 [Example 17, N-((4-(5-(1,1-difluoroethyl)-1,2,4-oxadiazol-3-yl)bicyclo[2.2.2]octan-1-yl)methyl)-3-fluoro-N-(2-methoxypyridin-4-yl)bicyclo[1.1.1]pentane-1-carboxamide] |
| 1560 | CC(F)(F)c1nc(C23CCC(CN(C(=O)C45CC(F)(C4)C5)c4cccc(S(=O)(=O)NC5CC5)c4)(CC2)CC3)no1 [Example 18, N-(3-(N-cyclopropylsulfamoyl)phenyl)-N-((4-(5-(1,1-difluoroethyl)-1,2,4-oxadiazol-3-yl)bicyclo[2.2.2]octan-1-yl)methyl)-3-fluorobicyclo[1.1.1]pentane-1-carboxamide] |
| 4000 | CC(F)(F)c1nc(C23CCC(CN(c4cccc(S(=O)(=O)NC5CC5)c4)C(=O)[C@H]4C[C@](O)(C(F)(F)F)C4)(CC2)CC3)no1 [Example 19, (1S,3S)-N-(3-(N-cyclopropylsulfamoyl)phenyl)-N-((4-(5-(1,1-difluoroethyl)-1,2,4-oxadiazol-3-yl)bicyclo[2.2.2]octan-1-yl)methyl)-3-hydroxy-3-(trifluoromethyl)cyclobutane-1-carboxamide] |
